# Tests used:
# [1] = tested on: Mycobacterium tuberculosis; assay: Antimycobacterial activity against Mycobacterium tuberculosis H37Rv ATCC 27294 by broth dilution method; assay type: functional
# [2] = Tmax in Balb mouse at 2.5 mg/kg, ip; assay type: ADME, organism-based; set-up: dose 2.5 mg/kg, route intraperitoneal; details: in vivo
# [3] = Elimination half life in Balb mouse at 2.5 mg/kg, ip; assay type: ADME, organism-based; set-up: dose 2.5 mg/kg, route intraperitoneal; details: in vivo, read-out: beta t1/2 (converted)
# [4] = AUC (0 to t) in Balb mouse at 2.5 mg/kg, ip; assay type: ADME, organism-based; set-up: dose 2.5 mg/kg, route intraperitoneal; details: plasma
# [5] = tested on: J774; assay: Cytotoxicity against mouse J774 cells at 20 ug/ml after 24 hrs by MTT assay; assay type: cell-based; details: j774, 24 h
# [6] = Cmax in Balb mouse at 2.5 mg/kg, ip; assay type: ADME, organism-based; set-up: dose 2.5 mg/kg, route intraperitoneal; details: in vivo
# [7] = Selectivity index, ratio of IC50 for mouse J774 cells to MIC for Mycobacterium tuberculosis H37Rv ATCC 27294; assay type: toxicity, cell-based; details: read-out: Selectivity Index
# [8] = AUC (0 to t) in Balb mouse at 1 mg/kg, iv; assay type: ADME, organism-based; set-up: dose 1 mg/kg, route intravenous; details: plasma
# [9] = Cmax in Balb mouse at 1 mg/kg, iv; assay type: ADME, organism-based; set-up: dose 1 mg/kg, route intravenous; details: in vivo
# [10] = tested on: Mycobacterium tuberculosis; assay: Bactericidal activity against Mycobacterium tuberculosis H37Rv ATCC 27294 by broth dilution method; assay type: functional
# [11] = tested on: Mycobacterium tuberculosis; assay: Antimycobacterial activity against Mycobacterium tuberculosis H37Rv ATCC 27294 infected in mouse J774 cells assessed as intracellular killing after 48 hrs by colony formation assay; assay type: functional; details: H37Rv ATCC 27294, 48 h
# [12] = tested on: J774; assay: Cytotoxicity against mouse J774 cells after 24 hrs by MTT assay; assay type: cell-based; details: J774, 24 h
# [13] = Elimination half life in Balb mouse at 1 mg/kg, iv; assay type: ADME, organism-based; set-up: dose 1 mg/kg, route intravenous; details: in vivo, read-out: beta t1/2 (converted)
# [14] = Clearance in Balb mouse at 1 mg/kg, iv; assay type: ADME, organism-based; set-up: dose 1 mg/kg, route intravenous; details: in vivo
# [15] = Bioavailability in Balb mouse at 2.5 mg/kg, ip; assay type: ADME, organism-based; details: in vivo
smiles,measurement,setting,value
O=C(Nc1ccccc1C(F)(F)F)c1cc([N+](=O)[O-])cc([N+](=O)[O-])c1,MIC,[1],1.41 µM
Cc1c([N+](=O)[O-])cc(C(=O)N[C@@H](C)c2ccc(Cl)cc2)cc1[N+](=O)[O-],MIC,[1],> 5.51 µM
Cc1c([N+](=O)[O-])cc(C(=O)N[C@@H](C)c2ccc(F)cc2)cc1[N+](=O)[O-],Tmax,[2],15 min
same,half-life,[3],64.8 min
same,AUC(0-t),[4],0.351 µM·h
same,Activity,[5],Non-toxic
same,Cmax,[6],216 nM
same,selectivity ratio,[7],> 1330
same,AUC(0-t),[8],0.374 µM·h
same,MIC,[1],0.04 µM
same,Cmax,[9],711 nM
same,MBC,[10],< 0.04 µM
same,MIC,[11],< 0.64 µM
same,IC50,[12],> 57.6 µM
same,half-life,[13],54 min
same,clearance,[14],111 mL/min/kg
same,bioavailability,[15],35%
N#Cc1ccccc1NC(=O)c1cc([N+](=O)[O-])cc([N+](=O)[O-])c1,MIC,[1],6.4 µM
Cc1ccc(CNC(=O)c2cc([N+](=O)[O-])c(C)c([N+](=O)[O-])c2)cc1,MIC,[1],0.09 µM
C[C@H](c1ccccc1)N(C)C(=O)c1cc([N+](=O)[O-])cc([N+](=O)[O-])c1,MIC,[1],1.52 µM
Cc1ccc([C@@H](C)NC(=O)c2cc([N+](=O)[O-])c(C)c([N+](=O)[O-])c2)cc1,Tmax,[2],30 min
same,half-life,[3],97.8 min
same,AUC(0-t),[4],0.431 µM·h
same,Activity,[5],Non-toxic
same,Cmax,[6],177 nM
same,selectivity ratio,[7],> 666
same,AUC(0-t),[8],0.352 µM·h
same,MIC,[1],0.09 µM
same,Cmax,[9],673 nM
same,MBC,[10],0.72 µM
same,MIC,[11],1.44 µM
same,IC50,[12],> 58.2 µM
same,half-life,[13],55.8 min
same,clearance,[14],134 mL/min/kg
same,bioavailability,[15],49%
Cc1ccc(CCNC(=O)c2cc([N+](=O)[O-])cc([N+](=O)[O-])c2)cc1,MIC,[1],1.52 µM
O=C(NC1CCCC1)c1cc([N+](=O)[O-])cc([N+](=O)[O-])c1,MIC,[1],0.9 µM
C[C@H](NC(=O)c1cc([N+](=O)[O-])cc([N+](=O)[O-])c1)c1ccccc1,MIC,[1],> 3.17 µM
CO[C@H]1/C=C/O[C@@]2(C)Oc3c(C)c(O)c4c(O)c(c(/C=N/N5CCN(C)CC5)c(O)c4c3C2=O)NC(=O)/C(C)=C\C=C\[C@H](C)[C@H](O)[C@@H](C)[C@@H](O)[C@@H](C)[C@H](OC(C)=O)[C@@H]1C [RIFAMPIN],MIC,[1],0.07 µM
O=C(Nc1ccc(F)cc1)c1cc([N+](=O)[O-])cc([N+](=O)[O-])c1,MIC,[1],> 1.63 µM
CC[C@H](NC(=O)c1cc([N+](=O)[O-])cc([N+](=O)[O-])c1)c1ccccc1,MIC,[1],3.04 µM
Cc1c([N+](=O)[O-])cc(C(=O)N[C@H](C)c2ccc(Cl)cc2)cc1[N+](=O)[O-],MIC,[1],1.38 µM
CCCCC(CC)CNC(=O)c1cc([N+](=O)[O-])cc([N+](=O)[O-])c1 (centres undefined),MIC,[1],0.19 µM
Cc1ccc([C@@H](C)NC(=O)c2cc([N+](=O)[O-])cc([N+](=O)[O-])c2)cc1,Activity,[5],Non-toxic
same,selectivity ratio,[7],> 1330
same,MIC,[1],0.05 µM
same,MBC,[10],0.2 µM
same,MIC,[11],0.8 µM
same,IC50,[12],> 60.8 µM
CCCCCCCCCCCCCCCCNC(=O)c1cc([N+](=O)[O-])cc([N+](=O)[O-])c1,MIC,[1],0.57 µM
CCCCC[C@@H](C)NC(=O)c1cc([N+](=O)[O-])cc([N+](=O)[O-])c1,MIC,[1],1.62 µM
O=C(NCc1ccccc1)c1cc([N+](=O)[O-])cc([N+](=O)[O-])c1,MIC,[1],0.8 µM
O=C(NCCc1ccccc1)c1cc([N+](=O)[O-])cc([N+](=O)[O-])c1,Activity,[5],Non-toxic
same,selectivity ratio,[7],> 80
same,MIC,[1],0.79 µM
same,MBC,[10],0.79 µM
same,MIC,[11],3.16 µM
same,IC50,[12],> 63.5 µM
C[C@@H](NC(=O)c1cc([N+](=O)[O-])cc([N+](=O)[O-])c1)c1ccc(F)cc1,MIC,[1],> 12 µM
Cc1ccc(C(C)NC(=O)c2cc([N+](=O)[O-])c(C)c([N+](=O)[O-])c2)cc1 (racemic),Activity,[5],Non-toxic
same,selectivity ratio,[7],> 1330
same,MIC,[1],< 0.17 µM
same,MBC,[10],< 0.04 µM
same,MIC,[11],0.72 µM
same,IC50,[12],> 58.2 µM
C[C@H](NC(=O)c1cc([N+](=O)[O-])cc([N+](=O)[O-])c1)c1ccc(F)cc1,MIC,[1],3 µM
O=C(NCCCc1ccccc1)c1cc([N+](=O)[O-])cc([N+](=O)[O-])c1,MIC,[1],1.52 µM
COc1ccc(CCNC(=O)c2cc([N+](=O)[O-])cc([N+](=O)[O-])c2)cc1,MIC,[1],1.45 µM
Cc1c([N+](=O)[O-])cc(C(=O)NCc2ccccc2)cc1[N+](=O)[O-],MIC,[1],0.38 µM
